Data as given in patent publication US9126957B2, “Selective glycosidase inhibitors and uses thereof” (MERCK SHARP & DOHME CORP., priority 2011, dated 2015).

Target: human O-GlcNAcase (Homo sapiens (Human), UniProt O60502)
Assay: Fluorescence-based hOGA assay for determination of KI values for inhibition of O-GlcNAcase activity
Assay type: biochemical
Settings: purified human O-GlcNAcase, 4-Methylumbelliferyl N-acetyl-β-D-glucosaminide substrate, pH 7.0, Cheng-Prusoff
Experimental: Assay for determination of KI values for inhibition of O-GlcNAcase activity Experimental procedure for kinetic analyses
Enzymatic reactions are carried out in a reaction containing 50 mM NaH2PO4, 100 mM NaCl and 0.1% BSA (pH 7.0) using 2 mM 4-Methylumbelliferyl N-acetyl-β-D-glucosaminide dihydrate (Sigma M2133) dissolved in ddH2O, as a substrate. The amount of purified human O-GlcNAcase enzyme used in the reaction is 0.7 nM. Test compound of varying concentrations is added to the enzyme prior to initiation of the reaction. The reaction is performed at room temperature in a 96-well plate and is initiated with the addition of substrate. The production of fluorescent product is measured every 60 sec for 45 min with a Tecan Infinite M200 plate-reader with excitation at 355 nm and emission detected at […], with 4-Methylumbelliferone (Sigma M1381) used to produce a standard curve. The slope of product production is determined for each concentration of compound tested and plotted, using standard curve fitting algorithms for sigmoidal dose response curves. The values for a four parameter logistic curve fit of the data are determined.
KI values are determined using the Cheng-Prusoff equation; the Km of O-GlcNacase for substrate is 0.2 mM.

Sequence of human O-GlcNAcase (O60502 whole entry): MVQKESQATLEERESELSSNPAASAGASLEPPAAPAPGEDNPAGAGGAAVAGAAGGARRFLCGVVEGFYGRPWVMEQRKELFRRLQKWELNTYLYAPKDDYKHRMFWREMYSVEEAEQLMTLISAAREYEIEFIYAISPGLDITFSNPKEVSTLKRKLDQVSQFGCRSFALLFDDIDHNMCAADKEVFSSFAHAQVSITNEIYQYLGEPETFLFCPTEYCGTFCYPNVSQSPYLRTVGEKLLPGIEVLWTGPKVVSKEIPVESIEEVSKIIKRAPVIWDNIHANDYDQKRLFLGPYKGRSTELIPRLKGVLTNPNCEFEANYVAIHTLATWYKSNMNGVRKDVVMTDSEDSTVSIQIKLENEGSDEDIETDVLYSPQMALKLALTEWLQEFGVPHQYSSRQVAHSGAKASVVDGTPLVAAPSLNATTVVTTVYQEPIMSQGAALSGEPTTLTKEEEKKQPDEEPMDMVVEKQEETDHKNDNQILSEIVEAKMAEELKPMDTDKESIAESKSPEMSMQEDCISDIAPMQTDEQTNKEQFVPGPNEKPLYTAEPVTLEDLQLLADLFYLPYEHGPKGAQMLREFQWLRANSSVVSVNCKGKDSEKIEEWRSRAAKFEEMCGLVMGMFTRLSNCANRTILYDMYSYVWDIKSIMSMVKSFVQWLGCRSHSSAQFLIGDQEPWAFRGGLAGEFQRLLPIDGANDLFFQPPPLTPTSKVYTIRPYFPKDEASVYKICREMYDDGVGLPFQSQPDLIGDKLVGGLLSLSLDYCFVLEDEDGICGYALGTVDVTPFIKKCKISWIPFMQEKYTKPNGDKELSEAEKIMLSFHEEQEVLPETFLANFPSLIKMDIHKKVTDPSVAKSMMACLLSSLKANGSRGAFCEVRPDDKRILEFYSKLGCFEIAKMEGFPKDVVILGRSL

Structure (SMILES) | Ki [nM]
CCCNC1=N[C@@H]2[C@@H](O)[C@H](O)[C@@H]([C@H](C)O)C[C@@H]2O1 [Example 5, (3aR,4R,5R,6R,7aS)-6-((S)-1-hydroxyethyl)-2-(propylamino)-3a,4,5,6,7,7a-hexahydrobenzo[d] oxazole-4,5-diol] | 7.1
C[C@@H](O)[C@@H]1C[C@H]2OC(N(C)C)=N[C@H]2[C@H](O)[C@H]1O (single isomer, unassigned) [Example 4] | 437
C[C@H](O)[C@H]1C[C@@H]2OC(N(C)C)=N[C@@H]2[C@@H](O)[C@@H]1O [Example 2, (3aR,4R,5R,6R,7aS)-2-(Dimethylamino)-6-((S)-1-hydroxyethyl)-3a,4,5,6,7,7a-hexahydro-benzo[d]oxazole-4,5-diol] | 0.26
CCCNC1=N[C@@H]2[C@@H](O)[C@H](O)[C@@H](C(C)(C)O)C[C@@H]2O1 [Example 8, (3aR,4R,5R, 6S,7aS)-6-(2-hydroxy-propan-2-yl)-2-(propylamino)-3a,4,5,6,7,7a-hexahydro-benzo[d] oxazole-4,5-diol] | 1670
CNC1=N[C@@H]2[C@@H](O)[C@H](O)[C@@H]([C@H](C)O)C[C@@H]2O1 [Example 6, (3aR,4R,5R,6R,7aS)-6-((S)-1-hydroxyethyl)-2-(methylamino)-3a,4,5,6,7,7a-hexahydrobenzo[d] oxazole-4,5-diol] | 0.26
C[C@@H](O)[C@H]1C[C@@H]2OC(N(C)C)=N[C@@H]2[C@@H](O)[C@@H]1O [Example 1A, (3aR,4R,5R,6R,7aS)-2-(Dimethylamino)-6-((R)-1-hydroxyethyl)-3a,4,5,6,7,7a-hexahydrobenzo[d]oxazole-4,5-diol] | 4.5
CN(C)C1=N[C@@H]2[C@@H](O)[C@H](O)[C@@H](C(C)(C)O)C[C@@H]2O1 [Example 3, (3aR,4R,5R,6S,7aS)-2-(Dimethylamino)-6-(2-hydroxypropan-2-yl)-3a,4,5,6,7,7a-hexahydro-benzo[d]oxazole-4,5-diol] | 54
C[C@H](O)[C@H]1C[C@@H]2SC(N(C)C)=N[C@@H]2[C@@H](O)[C@@H]1O [Example 10, (3aR,4R,5R,6R,7aS)-2-(dimethylamino)-6-((S)-1-hydroxyethyl)-3a,4,5,6,7,7a-hexahydrobenzo[d]thiazole-4,5-diol] | 0.14
CCNC1=N[C@@H]2[C@@H](O)[C@H](O)[C@@H](C(C)(C)O)C[C@@H]2O1 [Example 7, (3aR,4R,5R, 6S,7aS)-2-(ethylamino)-6-(2-hydroxy-propan-2-yl)-3a,4,5,6,7,7a-hexahydro-benzo[d] oxazole-4,5-diol] | 93
C[C@@H](O)[C@H]1C[C@@H]2SC(N(C)C)=N[C@@H]2[C@@H](O)[C@@H]1O [Example 9] | 14
